Assay results reported in publication PMC12080252, “Daphnia magna as an Alternative Model for (Simultaneous) Bioaccumulation and Chronic Toxicity Assessment—Controlled Exposure Study Indicates High Hazard of Heterocyclic PAHs” (Environmental Science & Technology, 2025).
Values joined by “and” are separate entries in the source; they are usually repeats but may differ in a detail not shown here. Equal values may be shown once.

What was measured:
[1] = Chronic reproduction toxicity test (OECD 211) with passive dosing; assay type: in vivo, Daphnia magna; conditions: Daphnia magna, in vivo, other: waterborne exposure by passive dosing from PDMS disks, 21-day test, read-out: % offspring mortality of total offspring
Method: (§1) Chronic toxicity tests with D. magna were performed according to the OECD guideline 211^2 using the passive dosing method. Two days before the tests, the exposure solution was predosed by shaking 10 PDMS disks loaded with the test substance in 1 L of medium for 48 h. Each test vessel (250 mL) was first flushed with the dosed solution to equilibrate the vessel walls, then filled with 100 mL of test solution, one PDMS disk, and one juvenile D. magna (<24 h old). The tests were conducted in loosely closed bottles to allow for adequate gas exchange and limit evaporation. The exposure medium was changed three times per week, and the animals were fed D. subspicatus daily (0.2 mg C/Daphnia/day). The number of offspring per adult and behavioral or physiological effects (e.g., size, movement, unhatched eggs) were recorded daily (except weekends). Dissolved oxygen, pH and temperature were also measured each week.
(§2) Tests were performed under static conditions (20 °C, 16:8 h light/dark cycle, 1 klux). Each compound was tested in 10 replicates for controls and limit tests (a single high concentration exposure to screen for significant toxic effects) and with 6 or 10 replicates for concentration–response tests. Reuse of silicone disks was included in some experiments (Table S3). Reproductive inhibition was assessed by counting offspring over 21 days. The number of offspring per mother in treatment groups was compared to controls, and the percent inhibition per replicate was used to generate concentration–response curves. A minimum of five concentrations per compound were tested to determine EC10, EC20, and EC50 values. For each test, three sets of polymers were rotated between loading, dosing, and exposure stages (Figure S2). Initial (before animal and food addition) and final (after 2–3 days of exposure, just before the medium change) water concentrations (CW) were monitored, with the latter collected after centrifugation to remove biomass (e.g., algae, carapaces, or feces).
(§3) All data are presented as average ± standard deviation. Student’s t test was used to analyze significance (p-value >0.05 considered insignificant). Concentration–response curve parameters (effective concentrations and confidence limits) and plots were generated using GraphPad Prism software (V6.01, GraphPad Software, La Jolla, CA, USA). The exposure concentrations were log10 transformed before fitting. Then a four parameters logistic model with variable slope was used to obtain EC10, EC20 and EC50 (see section S5 in SI file for details). Effective chemical activities (EA50) for chronic toxicity were calculated as follows: [drawing 1] 1 […]
(§4) S5. Concentration-response curve (CRC) fitting procedure
(§5) GraphPad Prism version 9.5.1 was used to fit CRC and obtain EC10, EC20, EC50 values and their confidence intervals. The exposure concentrations were log10 transformed before fitting. Then a four parameters logistic model with variable slope was used that describes the response as a function of following four parameters: minimum response (the Bottom), maximum response (the Top), the concentration required to cause a response half-way between the minimum and maximum (the EC50) and the slope of the curve […]
(§6) concentration. The Top was constrained to 100, the Bottom was constrained to 0, the HillSlope was not […]
(§7) !"# %& = !"# %&* − , × !"# 3 * 4
(§8) (, + ,((!"# %&'(<=)×-.!!/!"01)
(§9) Figure S7 Concentration-response curves of four NSO-PAHs based on reproductive inhibition during 21-day chronic toxicity tests with D. magna.
(§10) (1 picture or pasted object on this page, not shown here)

[2] = test system: Daphnia magna; test: as above; assay type: in vivo; conditions: for EC10: 21-day reproduction inhibition; for % inhibition, avr.: average of vessels; for % inhibition (of reproduction, per vessel): relative to controls; for wet weight of parent daphnids, change relative to control: end of 21-d exposure
Method: as §1, §2, §3, §4, §5, §6, §7, §8, §9, §10

[3] = Test 5-BCRB, avr. medium concentration 68.16 µg/L, 21 days
[4] = Test 5-BCRB, avr. medium concentration 68.16 µg/L, 21 days, one value per vessel

## c1ccc2c(c1)ccc1[nH]c3ccccc3c12 [BCRB, 7H-benzo[c]carbazole]
[1]; 4.1 µg/L (Fig. S8)
  mortality at 21 days, 4.1 µg/L: 3.3%
[1]; 9.8 µg/L (Fig. S8)
  mortality at 21 days, 9.8 µg/L: 4%
[1]; 21.8 µg/L (Fig. S8)
  mortality at 21 days, 21.8 µg/L: 2.9%
[1]; 44.6 µg/L (Fig. S8)
  mortality at 21 days, 44.6 µg/L: 5.6%
[1]; 68.2 µg/L (Fig. S8)
  mortality at 21 days, 68.2 µg/L: 32.4%
[2]; 97.5-2.5% confidence interval in brackets
  EC10: 15.0 (8.6-24.3) μg L^-1
[2]; confidence interval in brackets
  EC10: 69.2 (39.7-111.8) nmol L^-1
[2]; 21-day test, p-value <0.05
  growth of parent D. magna (wet weight): significantly inhibited D. magna growth
[2]; 21 days, p-value <0.05 vs controls
  LOEC (lowest observed effect concentration, reproduction inhibition): 9.8 μg L^–1
[2]; BCRB 3.99 µg/L, 21 days
  %offspring mortality: 3.29%
  % inhibition, avr.: 0.7%
[2]; BCRB 3.99 µg/L, 21 days, per mother
  #average live offspring: 83
[2]; BCRB 3.99 µg/L, 21 days, sum of all vessels
  #total live offspring: 499
[2]; BCRB 9.55 µg/L, 21 days
  %offspring mortality: 4.04%
  % inhibition, avr.: 15.0%
[2]; BCRB 9.55 µg/L, 21 days, per mother
  #average live offspring: 71
[2]; BCRB 9.55 µg/L, 21 days, single vessels 1-6
  % inhibition (of reproduction, per vessel): 6.9%
[2]; BCRB 9.55 µg/L, 21 days, sum of all vessels
  #total live offspring: 427
[2]; BCRB 21.94 µg/L, 21 days
  %offspring mortality: 2.91%
  % inhibition, avr.: 20.4%
[2]; BCRB 21.94 µg/L, 21 days, per mother
  #average live offspring: 67
[2]; BCRB 21.94 µg/L, 21 days, sum of all vessels
  #total live offspring: 400
[2]; BCRB 43.46 µg/L, 21 days
  %offspring mortality: 5.62%
  % inhibition, avr.: 39.8%
[2]; BCRB 43.46 µg/L, 21 days, per mother
  #average live offspring: 50
[2]; BCRB 43.46 µg/L, 21 days, single vessels 2-6
  % inhibition (of reproduction, per vessel): 39.1% and 54.6% and 28.4% and 37.9%
[2]; BCRB 43.46 µg/L, 21 days, sum of all vessels
  #total live offspring: 252
[2]; BCRB 43.46 µg/L, vessel 1, day 5
  Survival of the mother animal: dead
[2]; BCRB avr. medium concentration 3.99 µg/L (methanol for dosing 0.063 g/L), 21 days, single vessels 1-6
  Total #offspring per mother (live, per vessel): 104 and 86 and 87 and 79 and 68 and 75
[2]; BCRB avr. medium concentration 9.55 µg/L (methanol for dosing 0.125 g/L), 21 days, single vessels 1-6
  Total #offspring per mother (live, per vessel): 68 and 63 and 78 and 79 and 61
[2]; BCRB avr. medium concentration 21.94 µg/L (methanol for dosing 0.25 g/L), 21 days, single vessels 1-6
  Total #offspring per mother (live, per vessel): 67 and 73 and 77 and 64 and 63 and 56
[2]; BCRB avr. medium concentration 43.46 µg/L (methanol for dosing 0.5 g/L), 21 days, single vessels 2-6
  Total #offspring per mother (live, per vessel): 51 and 38 and 60 and 52
[2]; EC50/subcooled liquid solubility, eq 1
  EA50 (effective chemical activity): 0.004 unitless
[2]; [3]
  %offspring mortality: 32.43%
  % inhibition, avr.: 82.1%
[2]; Test 5-BCRB, avr. medium concentration 68.16 µg/L, 21 days, all vessels
  #total live offspring: 75
[2]; [4]
  % inhibition (of reproduction, per replicate vessel): 82.1% and 86.9% and 83.3% and 74.9%
  Total #dead offspring per mother (per replicate vessel): 9 and 2 and 8
[2]; Test 5-BCRB, avr. medium concentration 68.16 µg/L, 21 days, per surviving mother
  #average live offspring: 15
[2]; Test 5-BCRB, avr. medium concentration 68.16 µg/L, methanol dosing conc. 1 g/L, 21 days, one value per vessel
  Total #offspring per mother (per replicate vessel): 15 and 11 and 14 and 21
[2]; Test 5-BCRB, avr. medium concentration 68.16 µg/L, vessel 3, day 5
  Mother survival (parent mortality): dead
[2]; derived from chronic EC10 using eq 3
  CTLBB (critical target lipid body burden): 12.6 μmol g^-1 octanol
[2]; 4.1 µg/L (Fig. S9)
  wet weight of parent daphnids, change relative to control: +17%
[2]; 9.8 µg/L (Fig. S9)
  wet weight of parent daphnids, change relative to control: -14%
[2]; 21.8 µg/L (Fig. S9)
  wet weight of parent daphnids, change relative to control: -15%
[2]; 44.6 µg/L (Fig. S9)
  wet weight of parent daphnids, change relative to control: -34%
[2]; 68.2 µg/L (Fig. S9)
  wet weight of parent daphnids, change relative to control: -77%
[2]; two highest exposure concentrations, 22 and 68 μg L^–1
  swimming behavior: induced locomotor changes
